Results taken from patent US9889180B2, “Method of treating cancer” (Agency for Science, Technology and Research, priority 2012, dated 2018).

Assays:
Assay type in all cases: cell-based, human
RWPE1-MYC cells = assay: FACS cell death analysis in RWPE1-MYC cells; conditions: DZNep (2.5 μM) for 3 days with increasing doses of IFN-γ
Experimental: For the assessment of cell death, cells were harvested in 70% ethanol. Fixed cells were stained with Propidium Iodide (P.I) (50 μg/mL). The stained cells were analyzed for DNA content by FACS in a FACSCalibur (Becton Dickinson Instrument). % of cell death was defined as the sub-G1 population quantified using the CellQuest software (Becton Dickinson). The percentage of dead cells or sub-G1 cells was calculated by comparing the results of each experiment to the results from DMSO-treated cells. Each assay was repeated a minimum of three times, with results reported as means+s.e.m.

DU145 cells = assay: Cell proliferation assay (CellTiter-Glo) in DU145 cells; conditions: siRNA knockdown combined with IFN-γ treatment
Experimental: The optimal cell seeding was determined empirically for all cell lines by examining the growth of a wide range of seeding densities in a 96-well format to identify conditions that permitted proliferation for 6 days. Cells were then plated at the optimal seeding density 24 h before siRNA or drug treatment in triplicate. Plates were incubated for 6 days at 37° C. in 5% CO2. Cells were then lysed with CellTiter-Glo (CTG) (Promega) and chemiluminescent signal was detected with a microplate reader (TECAN). In addition, an untreated plate of cells was harvested at the time of drug or siRNA addition (T0) to quantify the starting number of cells. CTG values obtained after the 6 day treatment were expressed as percentages of the T0 value and plotted against time of treatment. Cells received 1-5 μM of DZNep, 25 ng/mL of IFN-γ and 0.1-2.5 μM of GSK343 unless stated otherwise for 72-96 h.

[1] = test system: JAK2 phosphorylation (Tyr1007/1008); assay: pJAK2 and total JAK2 ELISA assay in DU145 cells; conditions: in response to IFN-γ (25 ng/mL) stimulation
Experimental: pJAK2 levels were assessed using an ELISA assay kit (Tyr1007/1008, Life Technologies) and total JAK2 level with JAK2 (total) ELISA assay kit. Cells were first lysed with RIPA buffer and processed in the same way as western blot samples. pJAK2 and total JAK2 levels were determined by performing the ELISA assay on the processed cell lysates according to the manufacturer's protocol. The results were expressed as fold change after normalizing the pJAK2 (Tyr1007/1008) level to the total JAK2 level.

Compound	induction of apoptosis / cell death (RWPE1-MYC cells)	cell growth after knockdown (DU145 cells)	JAK2 phosphorylation after knockdown [1]
Cl.Nc1nccc2c1ncn2[C@@H]1C=C(CO)[C@@H](O)[C@H]1O [DZNep, (−)-1-[(1R,4R,5S)-3-(Hydroxymethyl)-4,5-dihydroxy-2-cyclopenten-1-yl]4-aminoimidazo[4,5-c]pyridine hydrochloride]	synergistic effect		
EZH2 knockdown: EZH2 siRNA: 5′-GACUCUGAAUGCAGUUGCU-3′ (SEQ ID NO: 1) (other strand not given here)		remarkable synergy in cell growth regression	enhanced
